# Measurements reported in the SangsterLogP compilation.
row,logP,Compound
1,2.35,CSc1nnc(-c2ccc(OC(F)(F)F)cc2)c(=O)[nH]1
2,1.31,COc1nnc(C(C)(C)C)c(=O)n1N
3,3.43,Cn1c(S)nnc(-c2cc(Cl)cc(Cl)c2)c1=O
4,1.03,Cc1nnc(C(C)(C)C)c(=O)n1N
5,2.35,CNc1nnc(-c2ccc(OC(F)(F)F)c(Cl)c2)c(=O)n1C
6,1.53,CSc1nnc(CC(C)C)c(=O)n1N
7,1.86,CNc1nnc(-c2ccc(OC(F)(F)F)cc2)c(=O)[nH]1
8,2.67,Nn1c(S)nnc(-c2cc(Cl)cc(Cl)c2)c1=O
9,1.91,CNc1nnc(-c2cc(Cl)cc(Cl)c2)c(=O)n1N
10,1.91,CCOc1cccc(-c2nnc(C)n(NC)c2=O)c1
11,2.38,Cn1c(S)nnc(-c2ccc(F)cc2)c1=O
12,1.19,CCCc1nnc(SC)n(N)c1=O
13,1.23,CSc1nnc(C(C)C)c(=O)n1N
14,3.02,CSc1nnc(-c2cc(Cl)cc(Cl)c2)c(=O)n1N
15,1.6,CNc1nnc(-c2ccc(F)c(Cl)c2)c(=O)n1C
16,2.67,CCOc1cccc(-c2nnc(S)n(C)c2=O)c1
17,0.15,CSc1nnc(C)c(=O)n1N
18,0.52,CNc1nnc(C(C)(C)C)c(=O)n1N
19,1.07,CN(C)c1nnc(C(C)(C)C)c(=O)n1C
20,2.09,CSc1nnc(C2CCCCC2)c(=O)n1N
21,1.07,CSc1nnc(C2CCOCC2)c(=O)n1N
